System: neuroligin-1 induced synaptogenesis
Experiment: Synapse microarray coculture assay: NLG1-induced synapsin clustering
Type: cell-based, rat
Conditions: for activity in coculture assay / NLG1-induced synaptogenesis (in words): synapse microarray, no single concentration stated

| SMILES | activity in coculture assay / NLG1-induced synaptogenesis (in words) | effect on NLG1-induced synaptogenesis (in words) (10 μM) |
| --- | --- | --- |
| Cc1[nH]c2ccccc2c1CCNCc1ccc(/C=C/C(=O)NO)cc1 [LBH-589] | potent | – |
| CCC(=O)CCCCC[C@@H]1NC(=O)[C@H]2CCCCN2C(=O)[C@H]([C@@H](C)CC)NC(=O)[C@H](Cc2cn(OC)c3ccccc23)NC1=O [apicidin] | greater potency than MS-275 | – |
| O=C(CCCCCN1C(=O)c2cccc3cccc(c23)C1=O)NO [scriptaid] | potent | – |
| CCCC(CCC)C(=O)O [valproic acid] | – | neither of the two compounds, valproic acid and phenylbutyric acid, affected synaptogenesis |

From paper PMC3544154 (Nature communications, 2011)
